According to patent US9885727B2, “Cell culture models for validating candidate compounds for use in treating COPD and other diseases” (THE TRUSTEES OF COLUMBIA UNIVERSITY IN THE CITY OF NEW YORK, priority 2010, dated 2018):

Assays:
[1] = Stability of DES and IDS on acid hydrolysis (6N HCl, 110° C., 24 hrs), LC/MSMS; details: for Recovered, mean: 6N HCl at 110° C. for 24 hour; for stability through acid hydrolysis: 10, 5 and 1 ng/ml, HCl hydrolysis at 110° C. for 24 hrs
Experimental: The assay of total DES and IDS in biological fluids requires HCl hydrolysis at 110° C. to release DES and IDS from their crosslinked or peptide conjugates. We examined the stability of DES and IDS in three different concentrations (10, 5, and 1 ng/ml) during HCl hydrolysis at 110° C. for 24 hrs. The DES/IDS solutions resulting from the HCl treatment were subjected to LC/MSMS measurements of DES and IDS, which were compared with the measurements of the same concentrations of untreated DES and IDS to calculate the recovery by the acid treatment.

[2] = system: neutrophils and macrophages; details: cited from earlier work
[3] = system: pro-MMP1 and pro-MMP3; details: cited from earlier work
[4] = system: smoke-induced elastic fiber injury; assay: Mouse model of smoke-induced pulmonary emphysema: DID in BALF and whole lungs; type: in vivo, DBA/2J mice
Experimental: (§1) Eight-week-old female DBA/2J mice (The Jackson Laboratory, Bar Harbor, Me.) were divided into two treatment groups as follows: Group 1 was treated with aerosolized HA, beginning 1 month following initiation of smoke exposure; Group 2 was treated with aerosolized water, beginning 1 month following initiation of smoke exposure. Groups 1 and 2 were exposed to smoke for 3 h per day, 5 days/week, for a period of 10 months. Group 1 was treated with a 0.1% solution of HA in water for 1 h prior to each smoking session. Group 2 received aerosolized water for a similar interval. At various intervals following initial smoke exposure, animals were euthanized to determine (1) DID content in bronchoalveolar lavage fluid (BALF) and whole lungs at 2, 4, 6, 8, and 10 months; (2) lung histopathology at 3, 6, and 10 months; and (3) airspace enlargement as measured by the mean linear intercept (MLI) at 3 months.
Following administration of either aerosolized HA or water, the nebulizer was disconnected and the smoking machine (Model TE-10, Teague Enterprises, Davis, Calif.) was attached to the exposure chamber. Both treatment groups were exposed to cigarette smoke for a period of 3 h/day, 5 days/week. The smoking machine simultaneously burned two filtered research-grade cigarettes (type 2R4F, University of Kentucky). Each cigarette was puffed once per minute for 2 s at a flow rate of 1.05 LPM, yielding 35 cc of smoke. This cycle was repeated nine times before ejecting the cigarette and loading a new one. Proper flow rate was maintained by a vacuum pump that established negative pressure at the exhaust port.
Beginning 1 month following initial smoke exposure, Group 1 was administered a 0.1% solution of low-molecular-weight (150 kDa) streptococcal HA in water (Bayer, Shawnee, Kans.), using a Misty-Ox nebulizer (Vital Signs, Totowa, N.J.). Group 2 received aerosolized water alone. The nebulizer was connected to a heavy-duty air compressor that delivered a constant pressure of 30 psi. The aerosol entered the exposure chamber through an inflow port attached to the roof and was drawn through the chamber by negative pressure created by a vacuum pump connected to an exhaust port on the side wall. The chamber was large enough (28×19×15 in.) to permit the mice to remain in their cages while inhaling the aerosol, thereby minimizing direct handling of the animals.
The levels of the elastin-specific crosslinking amino acids, DID, were measured in both BALF and whole-lung tissues. Animals were asphyxiated with CO2 and their lungs were lavaged three times with 1-ml aliquots of Hanks' solution. Both cell-free lavage fluids and homogenized lung tissues were then hydrolyzed in 6 N HCl at 110° C. for 24 h, and the hydrolysates were filtered and evaporated to remove acid. DID were quantified by high-performance liquid chromatography and electrospray ionization mass spectrometry according to previously published procedures^11.

[5] = system: elastases, including human metalloproteinase 12; details: cited from earlier work
[6] = system: smoke-induced elastic fiber injury; details: concurrent administration, within 3 months of smoke exposure; cited from earlier work
[7] = system: elastase-induced airspace enlargement; details: aerosol of 0.1% HA in water for 50 min prior to elastase; cited from earlier work
[8] = system: smoke-induced airspace enlargement; type: in vivo, DBA/2J mice
Experimental: as §1, with “3 months. […]” for “3 months.”
At 3, 6, and 10 months following initiation of smoke exposure, mice were asphyxiated with CO2 and their lungs were inflated in situ with 10% neutral-buffered formalin at a constant pressure of 20 cm H2O. […] Slide sections stained with hematoxylin and eosin were examined with the light microscope to determine histological changes and to quantify airspace diameter by the mean linear intercept method^16. […]

[9] = system: COPD patients; assay: Tiotropium treatment of COPD patients: D/I in plasma, urine and sputum by LC/MS; type: in vivo, human
Experimental: COPD patients have elevated levels of D/I in plasma, urine and sputum, which might respond to prolonged bronchodilation. To determine if clinical effects of Tiotropium (TIO) affect tissue degradation of the lung in COPD, clinically stable patients with COPD (n=9) not on TIO prior to the study and at one month and a second month after initiating therapy were tested. Other anticholinergic bronchodilators were stopped prior to TIO, and other therapies/disease treatments were unchanged for the two months of study. To these patients, 18 mcg TIO was administered each 24 hours. D/I in plasma, urine and sputum were measured by liquid chromatography and mass spectrometry (LC/MS) prior to the study and at one month and two months after the study.

[10] = system: COPD patients; assay: Spirometry in post-TIO therapy patients; type: in vivo, human; details: most post-TIO therapy patients
Text: The improvement in spirometric indices were usually concordant with levels of D/I in patients.

[11] = COPD patients, 18 mcg TIO each 24 hours, up to two months

In the case of NC(CCCC[n+]1cc(CCC(N)C(=O)O)cc(CCC(N)C(=O)O)c1CCCC(N)C(=O)O)C(=O)O (stereo not drawn) [IDS, Isodesmosine], the “Recovered, mean” value ([1]; 1 ng/ml DES/IDS) is reported as 0.48 ng/mL, the “Recovered, mean” value ([1]; 5 ng/ml DES/IDS) is reported as 2.55 ng/mL and the “Recovered, mean” value ([1]; 10 ng/ml DES/IDS) is reported as 5.37 ng/mL. The “stability through acid hydrolysis” value [1] was “stable through acid hydrolysis”.
In the case of “VGVAPG (Human) [elastin-derived hexapeptide isolated from ligamentum nuchae or aorta by porcine pancreatic elastase]”, the chemoattractant activity [2] is listed as “chemoattractants for neutrophils and macrophages” and the “pro-MMP1 and pro-MMP3 upregulation” value [3] is listed as “induce pro-MMP1 and pro-MMP3 upregulation”.
For hyaluronan [HA], the “difference in BALF DID, HA/Smoke vs Smoke-Only” value ([4]; 2 and 4 months of smoke exposure) was “not statistically significant”, the “BALF DID, level before the drop” value ([4]; HA/Smoke group, 0.1% aerosolized HA begun 1 month after start of smoke) was 0.8 ng/mL and the “BALF DID, level after the drop” value ([4]; HA/Smoke group, after 4 months of smoke exposure) was “less than 1 pg/ml”. The “BALF DID, HA-treated vs Smoke-Only” value ([4]; subsequent measurements (after 4 months)) was “significantly lower levels”, the “difference in lung DID, HA/Smoke vs Smoke-Only” value ([4]; whole lungs, 10-month period) was “not statistically significant” and the “direct inhibition of elastases” value [5] was “does not directly inhibit elastases”. For the same molecule, the “elastolysis of elastic fibers with bound HA” value ([5]; in vitro, several types of elastase including human metalloproteinase 12) was “prevented elastolysis”, the “BALF DID levels” value [6] was “significantly reduced” and the “airspace enlargement vs aerosolized water and elastase” value [7] was “significantly less airspace enlargement”. The “mean linear intercept (MLI)” value ([8]; 3 months of smoke, HA treated for 2 months, smoke alone 58.4 μm, p<0.01) was 42.6 μm and the “inflammatory response beyond that induced by smoke exposure” value ([8]; mouse, in vivo) was “no evidence of an inflammatory response”.
In the case of NC(CCCC[n+]1cc(CCC(N)C(=O)O)c(CCCC(N)C(=O)O)c(CCC(N)C(=O)O)c1)C(=O)O (stereo not drawn) [DES, Desmosine], the “Recovered, mean” value ([1]; 1 ng/ml DES/IDS) is reported as 0.50 ng/mL, the “Recovered, mean” value ([1]; 5 ng/ml DES/IDS) is reported as 2.42 ng/mL and the “Recovered, mean” value ([1]; 10 ng/ml DES/IDS) is reported as 5.04 ng/mL. The “stability through acid hydrolysis” value [1] was “stable through acid hydrolysis”.
In the case of C[N+]1(C)[C@@H]2C[C@@H](OC(=O)C(O)(c3cccs3)c3cccs3)C[C@H]1[C@@H]1O[C@@H]12 [TIO, Tiotropium], the “patients with significant decrease in D/I levels in plasma” value [9, 11] is reported as 10 out of 12, the “patients with significant decrease in D/I levels in sputum” value [9, 11] is reported as “all 12 patients” and the “patients with significant decrease in D/I levels in urine” value [9, 11] is reported as 10 out of 12. The “D/I levels in plasma, urine and sputum” value ([9]; two months of treatment with TIO) was “significant reductions”, the “FVC, FEV1 and ratio of FEV1/FVC” value [10] was “significant increase” and the “Residual Volume (RV)” value [10] was “decreases”.
